Data published in article PMC10141620 (Viruses, 2023).
Where “and” joins values, the source holds several entries; their conditions need not be identical. Equal values may be shown once.

Experiments:
Assay type in all cases: cell-based
[1] = test system: SARS-CoV-2 Brazil (Gamma: K417T/E484K/N501Y) pseudovirus
[2] = test system: SARS-CoV-2 USA-WA1/2020 D614G pseudovirus
[3] = test system: SARS-CoV-2 mutant (D614G) and variants of concern (VOC) pseudoviruses; conditions: read-out: IC50, range over all variant pseudoviruses

Cc1ccc2nc3s/c(=C/c4coc(-c5ccc(Cl)c(C(=O)O)c5)c4)c(=O)n3c2c1 [NBCoV35]
IC50 [1]: 0.292 µM and 0.506 µM | IC50 [2]: 0.266 µM and 0.195 µM

O=C(O)c1cc(-c2ccc(/C=c3\sc4nc(=O)c5c6c(sc5n4c3=O)CCCC6)o2)ccc1Cl [NBCoV36]
IC50 [3]: 0.181 to 1.18 µM and 0.129 to 0.332 µM

Cc1cc(C)c2nc3s/c(=C\c4ccc(-c5ccc(Cl)c(C(=O)O)c5)o4)c(=O)n3c2c1 [NBCoV37]
IC50 [2]: 0.311 µM and 0.157 µM | IC50 [3]: 0.082 to 0.267 µM and 0.0425 to 0.311 µM

Cc1cc2nc3s/c(=C/c4ccc(-c5cccc(C(=O)O)c5)o4)c(=O)n3c2cc1C [NBCoV63]
IC50 [1]: 0.0455 µM and 0.0775 µM | IC50 [2]: 0.0425 µM and 0.0408 µM | IC50 [3]: 0.034 to 0.096 µM and 0.026 to 0.105 µM
